This data set concerns hCAR-mediated CYP2B6 promoter. Description: CAR-mediated CYP2B6 promoter luciferase assay in HepG2 cells. The data set is classed as cell-based, human. The conditions noted are these: pcDNA3-CAR-transfected HepG2 cells, 24 h; CITCO 500 nM. The protocol:
HepG2 cells (American Tissue Culture Collection, Manassas, VA, USA) were maintained in Dulbecco’s modified Eagle’s essential medium (DMEM), containing 10% fetal bovine serum, 1% nonessential amino acids, 1% GlutaMAX®, and 1% antibiotics/antimycotics at 37 °C in a 5% CO2 atmosphere. The expression plasmid encoding the human constitutive androstane receptor (hCAR; pcDNA3-CAR) and the pGL3-CYP2B6 luciferase construct were kindly provided by Dr. Hongbing Wang (University of Maryland, College Park, MD, USA). The plasmid encoding the human pregnane X receptor (hPXR; pcDNA3-PXR) and the pGL3-CYP3A4 luciferase construct were obtained from Dr. Masahiko Negishi at the National Institutes of Health (Bethesda, MD, USA). Cells were seeded at a density of 1.5 × 10^5 cells/well into a 24-well plate. The next day, the cells were transfected with 0.25 μg of either pcDNA3-CAR or pcDNA3-PXR and 0.25 μg of a promoter luciferase plasmid (either pGL3-CYP2B6 or pGL3-CYP3A4) using Lipofectamine 2000 (Invitrogen, Carlsbad, CA, USA) according to the manufacturer’s instructions. […] The cells were harvested and luciferase activity was measured as described previously.

Consider `Clc1ccc(-c2nc3sccn3c2C=NOCc2ccc(Cl)c(Cl)c2)cc1` [CITCO, reference compound], for which the “CYP2B6 luciferase activity increase” value was determined as 1.5 fold.

The values above are taken from article PMC6100415, “Hepatic Metabolism of Sakuranetin and Its Modulating Effects on Cytochrome P450s and UDP-Glucuronosyltransferases” (Molecules : A Journal of Synthetic Chemistry and Natural …, 2018).
